From ChEMBL document CHEMBL3286117, “Synthesis and pharmacological evaluation of analogues of benzyl quinolone carboxylic acid (BQCA) designed to bind irreversibly to an allosteric site of the M ₁ muscarinic acetylcholine receptor” (J Med Chem, 2014)
The source made the active and inactive calls. The calls are words filed in the database; no cut-off is given here.

Key:
[1] = target: T1, Muscarinic acetylcholine receptor M1 (Homo sapiens) (UniProt P11229); assay: Displacement of [3H]NMS from human M1 mAChR expressed in FlpIn-CHO cells after 4 hrs by microplate counting analysis; format: cell-based
T1 sequence (whole entry): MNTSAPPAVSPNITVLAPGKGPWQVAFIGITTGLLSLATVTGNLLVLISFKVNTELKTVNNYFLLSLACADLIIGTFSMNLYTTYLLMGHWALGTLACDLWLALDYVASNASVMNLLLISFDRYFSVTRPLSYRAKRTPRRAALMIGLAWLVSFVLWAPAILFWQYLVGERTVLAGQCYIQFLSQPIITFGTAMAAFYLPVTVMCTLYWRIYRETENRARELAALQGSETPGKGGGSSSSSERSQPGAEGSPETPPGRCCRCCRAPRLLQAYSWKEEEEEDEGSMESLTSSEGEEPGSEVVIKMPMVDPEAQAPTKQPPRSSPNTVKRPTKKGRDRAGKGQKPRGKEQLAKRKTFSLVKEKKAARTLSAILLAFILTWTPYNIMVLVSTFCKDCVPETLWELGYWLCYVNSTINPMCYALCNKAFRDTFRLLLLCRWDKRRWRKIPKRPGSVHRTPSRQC

[2] = target: T2, Muscarinic acetylcholine receptor M1 (Homo sapiens, UniProt P11229); assay: Activation of human M1 mAChR expressed in FlpIn-CHO cells assessed as […] ERK1/2 phosphorylation incubated for 5 mins by Alphascreen assay; format: cell-based
T2 sequence (P11229 whole entry): T1 sequence (whole entry)

[3] = target: T1, Muscarinic acetylcholine receptor M1 (Homo sapiens); assay: Irreversible binding to human M1 mAChR expressed in FlpIn-CHO cell membrane assessed as receptor alkylation incubated for 30 mins prior to [3H]NMS addition measured after 4 hrs by radioligand displacement analysis (reference value: 100%); format: cell membranes
[4] = target: T1, Muscarinic acetylcholine receptor M1 (Homo sapiens); assay: Irreversible binding to human M1 mAChR expressed in FlpIn-CHO cells assessed as receptor alkylation incubated for 30 mins prior to [3H]NMS addition measured 4 hrs after compound washout by whole cell radioligand displacement analysis relative to vehicle-treated control; format: cell-based

SMILES | pKb [1] | EC50 [2] [nM] | Bmax [3] [%] | Activity [4]
O=C(O)c1cn(Cc2ccc(S(=O)(=O)F)cc2)c2ccccc2c1=O | 3.97 | 316 |  | 
O=C(CBr)Nc1ccc(Cn2cc(C(=O)O)c(=O)c3ccccc32)cc1 | 4.72 | 1580 |  | 
COc1ccc(Cn2cc(C(=O)O)c(=O)c3ccccc32)cc1 |  |  | 90.8 | inactive
O=C(O)c1cn(Cc2ccc(N3C(=O)C=CC3=O)cc2)c2ccccc2c1=O | 5.09 | 417 |  | 
O=C(O)c1cn(Cc2ccc(N=C=S)cc2)c2ccccc2c1=O | 5.22 | 389 | 50 | inactive
